According to ChEMBL document CHEMBL1157972, “Biotransformation of (-)-ambrox by cell suspension cultures of Actinidia deliciosa” (J Nat Prod, 2006):
Calls of active or inactive are those of the source. No cut-off for these calls is given here.

The compounds below were run against Thymidine phosphorylase (Escherichia coli K-12) (UniProt P07650) (assay: (§1) Inhibition of Escherichia coli thymidine phosphorylase by spectrophotometry).
Thymidine phosphorylase (Escherichia coli K-12), sequence (P07650 whole entry, looked up): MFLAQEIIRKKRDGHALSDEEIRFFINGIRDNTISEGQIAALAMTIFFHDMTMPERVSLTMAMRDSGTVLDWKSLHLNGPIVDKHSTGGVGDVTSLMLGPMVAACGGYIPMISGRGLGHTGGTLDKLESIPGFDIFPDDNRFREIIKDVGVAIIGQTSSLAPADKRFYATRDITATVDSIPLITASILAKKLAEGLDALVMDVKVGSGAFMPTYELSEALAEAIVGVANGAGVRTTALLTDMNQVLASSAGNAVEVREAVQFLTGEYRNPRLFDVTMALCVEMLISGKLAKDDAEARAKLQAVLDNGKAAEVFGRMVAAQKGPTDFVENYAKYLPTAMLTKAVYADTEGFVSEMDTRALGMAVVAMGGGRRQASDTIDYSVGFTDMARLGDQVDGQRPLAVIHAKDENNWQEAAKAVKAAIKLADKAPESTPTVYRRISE

Q: For `CC1(C)[C@@H](O)CC[C@]2(C)[C@H]3CCO[C@]3(C)CC[C@@H]12`, which Activity is on record?
A: Its Activity is “inactive”.

Q: With `CC1(C)CCC[C@]2(C)[C@H]3CCO[C@]3(C)CC[C@@H]12` as the compound, how does the Activity read?
A: The Activity was “inactive”.

Q: With `CC1(C)C(=O)CC[C@]2(C)[C@H]3CCO[C@]3(C)CC[C@@H]12` as the compound, how does the Activity read?
A: Its Activity is “inactive”.

Q: Which Activity does the source give for `CC1(C)[C@@H](O)C[C@H](O)[C@]2(C)[C@H]3CCO[C@]3(C)CC[C@@H]12` here?
A: The Activity was “inactive”.

Q: For `CC1(C)CC[C@H](O)[C@]2(C)[C@H]3CCO[C@]3(C)CC[C@@H]12`, which Activity is on record?
A: The Activity was “inactive”.

What follows are compounds tested against Thymidine phosphorylase (Escherichia coli K-12, UniProt P07650) (assay: as §1).
Thymidine phosphorylase, sequence (P07650 whole entry): as the sequence (P07650 whole entry, looked up) above

Q: For `CC1(C)[C@@H](O)CC[C@]2(C)[C@H]3CCO[C@]3(C)C[C@@H](O)[C@@H]12`, which IC50 is on record?
A: The IC50 was 81.4 µM.

Q: `CC1(C)CC[C@H](O)[C@]2(C)[C@H]3CCO[C@]3(C)C[C@@H](O)[C@@H]12` was tested. Which IC50 did it give?
A: Its IC50 is 72 µM.
